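1) Cells in 96-well plates. 2) Compound, 48 h, 5 concentrations. 3) Linear interpolation between surrounding doses. 4) Unreached endpoint = highest concentration. The concentration for full growth arrest is given as TGI.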
Tests used:
Test in all cases: growth of human tumour cells (NCI), 48 h
HT29 colon = test system: HT29 colon
BT-549 breast = test system: BT-549 breast
NCI-H23 lung = test system: NCI-H23 lung
NCI/ADR-RES ovarian = test system: NCI/ADR-RES ovarian
U251 CNS = test system: U251 CNS
786-0 renal = test system: 786-0 renal
HCT-116 colon = test system: HCT-116 colon
UACC-62 melanoma = test system: UACC-62 melanoma
SF-268 CNS = test system: SF-268 CNS
OVCAR-8 ovarian = test system: OVCAR-8 ovarian
ACHN renal = test system: ACHN renal

SMILES	TGI (HT29 colon)	TGI (BT-549 breast)	TGI (NCI-H23 lung)	TGI (NCI/ADR-RES ovarian)	TGI (U251 CNS)	TGI (786-0 renal)	TGI (HCT-116 colon)	TGI (UACC-62 melanoma)	TGI (SF-268 CNS)	TGI (OVCAR-8 ovarian)	TGI (ACHN renal)
C=CCC1(O)c2ccccc2C(=O)c2c(O)ccc(O)c21 (centres undefined)	> 62.4 µM	36.3 µM	56 µM	12.1 µM	24.3 µM	31.8 µM	27.3 µM	20.3 µM	56.9 µM	53.7 µM	46.3 µM
C=C(C)[C@@]1(O)O[C@H]2C[C@@]3(C)OC(=CC3=O)/C(C)=C\[C@@H]3OC(=O)[C@@]1(C)[C@H]32	40.9 µM	23.9 µM	> 31.6 µM	> 100 µM	33.6 µM	26.7 µM	20.6 µM	35.7 µM	88.2 µM	> 100 µM	> 77.1 µM
Nc1nc(Cl)cc(NCC2(O)CC(CO)C2)n1 (centres undefined)	> 100 µM	> 100 µM	> 100 µM	> 100 µM	> 100 µM	> 100 µM	> 100 µM	> 100 µM	> 100 µM	> 100 µM	> 100 µM
O=S(=O)(Oc1ccc2oc3ccccc3c2c1-c1c(OS(=O)(=O)C(F)(F)F)ccc2oc3ccccc3c12)C(F)(F)F	> 100 µM	> 100 µM	> 100 µM	> 100 µM	> 100 µM	> 100 µM	> 100 µM	> 100 µM	> 100 µM	> 100 µM	> 100 µM
C1=C\SS/C=C\SS/C=C\SS/C=C\SS/1	> 100 µM	> 100 µM	> 100 µM	> 100 µM	> 100 µM	> 100 µM	> 100 µM	> 100 µM	> 100 µM	> 100 µM	> 100 µM
C1CC2=C(C1)[Se]C(=C1Sc3nsnc3S1)[Se]2	> 100 µM	> 100 µM	> 100 µM	> 100 µM	> 100 µM	> 100 µM	> 100 µM	> 100 µM	> 100 µM	> 100 µM	> 100 µM
CNC(=O)c1ccccc1-[s+]1c2ccccc2c(=O)n1C (centres undefined)	> 100 µM	> 100 µM	> 100 µM	> 100 µM	> 100 µM	> 100 µM	> 100 µM	> 100 µM	> 100 µM	> 100 µM	> 100 µM
OCC1OC(c2scc3c(=S)nc[nH]c23)C(O)C1O (centres undefined)	70.1 µM	> 100 µM	92.6 µM	> 66.3 µM	> 100 µM	> 100 µM	> 84.3 µM	45.6 µM	> 100 µM	39.6 µM	> 67.8 µM
Nc1nc2c(=O)c3ccccc3sc2s1	> 100 µM	> 100 µM	> 100 µM	90.5 µM	> 100 µM	> 100 µM	> 100 µM	84 µM	> 100 µM	50.7 µM	> 100 µM
O=C(Cc1ccccc1)NCCc1ccc(O)c(O)c1	> 100 µM	> 100 µM	> 100 µM	> 100 µM	> 100 µM	> 100 µM	> 100 µM	> 100 µM	> 100 µM	> 100 µM	> 100 µM
CCOC(=O)c1cccc(NC(=O)CCl)c1	14.1 µM	17.9 µM	13.1 µM	22.7 µM	2.95 µM	4.02 µM	8.29 µM	6.85 µM	5.69 µM	> 30.1 µM	9.19 µM
CCc1nn(CN2CCN(C)CC2)c(=S)n1/N=C\c1ccc(-c2ccc([N+](=O)[O-])cc2)o1	> 100 µM	> 100 µM	> 100 µM	73.2 µM	> 100 µM	> 100 µM	> 100 µM	> 100 µM	> 100 µM	> 100 µM	> 100 µM
O=c1cc(CNC2CCCC2)[nH]c(=O)[nH]1	> 100 µM	> 100 µM	> 100 µM	> 100 µM	> 100 µM	> 100 µM	> 100 µM	> 100 µM	> 100 µM	> 100 µM	> 100 µM
c1ccc(C2=NC3(CCCCC3)N(c3nc4ccccc4s3)N2)nc1	58 µM	58.2 µM	84.8 µM	65.3 µM	49 µM	42.2 µM	> 100 µM	> 100 µM	> 100 µM	> 100 µM	> 100 µM
O=c1[nH]c(=O)n(C2CC(O)C(CO)O2)cc1I (centres undefined)	> 100 µM	> 100 µM	> 100 µM	> 100 µM	> 100 µM	> 100 µM	> 100 µM	> 100 µM	> 100 µM	> 100 µM	> 100 µM
CC(C)(C)OC(=O)CN1CCNCCNCC1	> 100 µM	> 100 µM	> 100 µM	> 100 µM	> 100 µM	> 100 µM	> 100 µM	> 100 µM	> 100 µM	> 100 µM	> 100 µM
O=C(O)[C@H]1[C@@H](C2CCCCC2)O[C@@H](C2CCCCC2)O[C@H]1C(F)(F)F	44 µM	98.6 µM	42.6 µM	> 100 µM	34.2 µM	33.5 µM	> 100 µM	41.2 µM	44.2 µM	45.5 µM	32.7 µM
Cc1ccc(C)n1-c1ccccc1C1SCCCS1	> 100 µM	> 100 µM	> 100 µM	> 100 µM	> 100 µM	> 100 µM	> 100 µM	> 100 µM	> 100 µM	> 100 µM	> 100 µM
CCOc1cc2c(cc1O)/C(=N\N)C[C@@H]1[C@@H]2CC[C@]2(C)[C@@H](O)CC[C@@H]12	30.8 µM	29.8 µM	92.1 µM	> 28.2 µM	> 48.9 µM	> 38.5 µM	> 37.8 µM	41.9 µM	> 44.9 µM	> 42.9 µM	> 100 µM
